In patent US6143764A, “Quinoline and quinazoline derivatives inhibiting platelet-derived growth factor receptor autophosphorylation and pharmaceutical compositions containing the same” (priority 1995, dated 2000):

Key:
PDGF receptor = molecular target: T1, PDGF receptor (Rattus norvegicus, UniProt Q05030); test: PDGF receptor autophosphorylation inhibition in cultured rat mesangial cells; format: cell-based; settings: PDGF-BB 50 ng/ml
T1 construct: cultured rat mesangial cells which are known to have the PDGF receptor; endogenous in cells; host or cells: primary mesangial cells cultured from glomeruli of Wistar-Kyoto rats (Charles River Japan), more than 5 passages
T1 sequence (Q05030 32-1097): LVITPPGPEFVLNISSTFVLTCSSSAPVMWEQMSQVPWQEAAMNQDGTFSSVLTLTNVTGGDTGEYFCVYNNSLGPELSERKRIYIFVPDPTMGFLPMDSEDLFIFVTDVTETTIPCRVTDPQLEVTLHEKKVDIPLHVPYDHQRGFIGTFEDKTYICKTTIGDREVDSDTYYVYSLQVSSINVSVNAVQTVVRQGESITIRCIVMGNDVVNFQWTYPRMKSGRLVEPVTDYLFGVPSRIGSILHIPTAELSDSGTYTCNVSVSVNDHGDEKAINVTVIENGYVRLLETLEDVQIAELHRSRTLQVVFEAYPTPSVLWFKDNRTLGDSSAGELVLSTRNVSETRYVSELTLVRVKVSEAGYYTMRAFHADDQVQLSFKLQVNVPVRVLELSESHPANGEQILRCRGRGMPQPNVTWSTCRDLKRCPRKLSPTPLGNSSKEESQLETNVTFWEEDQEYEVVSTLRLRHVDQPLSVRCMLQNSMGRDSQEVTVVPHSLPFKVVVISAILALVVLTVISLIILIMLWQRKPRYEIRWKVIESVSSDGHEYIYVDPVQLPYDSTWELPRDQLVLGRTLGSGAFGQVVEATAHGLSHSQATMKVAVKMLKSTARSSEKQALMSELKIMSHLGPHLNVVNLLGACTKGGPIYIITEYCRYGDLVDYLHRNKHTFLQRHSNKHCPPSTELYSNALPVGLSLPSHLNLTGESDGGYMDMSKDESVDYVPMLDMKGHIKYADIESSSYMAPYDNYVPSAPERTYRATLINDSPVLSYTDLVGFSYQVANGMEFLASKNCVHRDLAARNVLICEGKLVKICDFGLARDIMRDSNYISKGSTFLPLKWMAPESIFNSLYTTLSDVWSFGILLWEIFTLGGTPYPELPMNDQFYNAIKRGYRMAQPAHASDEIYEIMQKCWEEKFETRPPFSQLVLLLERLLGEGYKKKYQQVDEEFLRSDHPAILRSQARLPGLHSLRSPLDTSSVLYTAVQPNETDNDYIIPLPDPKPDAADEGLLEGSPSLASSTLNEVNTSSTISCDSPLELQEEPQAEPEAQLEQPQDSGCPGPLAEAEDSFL
Summary of the method: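 Growth-arrested rat mesangial cells (>5 passages, 0.5% FCS for 3 days) preincubated with drug in 0.1% BSA medium for 1 h at 37° C., then stimulated with 50 ng/ml human PDGF-BB for 10 min. Phosphotyrosine Western blot of ~180 kDa receptor band by densitometry, normalized to PDGF-stimulated (100%) and unstimulated (0%) wells.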

[1] = system: glomerulonephritis associated with mesangial cell growth in rats; test: Effect on nephritis associated with mesangial cell growth in rats (OX-7 induced glomerulonephritis); format: in vivo, Wistar-Kyoto rat; settings: 8 days
Procedure: Effect on nephritis associated with mesangial cell growth in rats
Groups of 6 Wistar-Kyoto male rats (7 weeks old, purchased from Charles River Japan, Inc.) were used. OX-7 (prepared according to Pathol. Int., 45, 409 (1995)), a monoclonal antibody against anti-rat Thy1.1, was injected intravenously into the tails of rats at a dose of 1.2 mg/kg to induce glomerulonephritis associated with mesangial cell growth and extracellular matrix accumulation. A test drug suspended in a vehicle, a 1% aqueous cremophor solution, was administered orally 2 times a day starting one day after an OX-7 injection for 8 consecutive days. On day 9, when pathological changes in glomeruli became markedly apparent, the rats were sacrificed and anatomized under anesthesia with ether, and left kidneys were taken out and fixed in formalin. The kidneys were embedded in paraffin and then sectioned thinly, and the sections were stained with a periodic acid-Schiff's reagent. The 20 glomeruli were arbitrarily selected for individual specimens thus prepared, and pathological sclerotic changes were scored as follows:
Average scores for sclerotic change of individual specimens were calculated to quantify the degree of glomerular sclerosis. Average scores of glomerular sclerosis for individual specimens of rat groups administered with the drug were compared with those for control groups administered with the vehicle only to calculate glomerular sclerosis inhibition rates (%). The significance of differences was determined by the Dunnet method after testing homoscedasticity according to the Bartlett method.

[2] = system: mouse leukemia cells (P388); test: Antitumor effect against mouse leukemia cells (P388), survival of mice; format: in vivo; settings: CDF1 mice, 100 mg/kg intraperitoneally, 9 consecutive days
Procedure: P388 cells (1×10^5 cells), mouse leukemia cells obtained from ATCC, were inoculated intraperitoneally into CDF1 mice (obtained from Japan SLC, Inc.), and then the test compound was administered intraperitoneally for 9 consecutive days at the dose of 100 mg/kg. The drug-treated animals survived longer than control animals by 130%.

[3] = system: human glioma cells (GLO7); test: Antitumor effect of compound number 43 against human glioma (GLO7), nude mice xenograft; format: in vivo; settings: 100 mg/kg orally 2 times a day, 14 days, test period about 4 weeks
Procedure: (§1) Human glioma, GLO7 (obtained from the Central Institute for Experimental Animals), was transplanted into nude mice. When the tumor had grown to a volume of about 100 mm^3, the nude mice were divided into several groups of 4 animals so as to equalize the average tumor volumes of each group. The test drug was administered orally to animals in experimental groups 2 times a day for 14 consecutive days at 100 mg/kg, and the vehicle was administered to control animals. The tumor growth inhibition rate (TGIR, %) was calculated from the equation: TGIR=(1-Tx/Cx)×100, in which Cx is the tumor volume in the control mice and Tx is the tumor volume in the drug-treated mice, on day X, when the initial tumor volume at the time treatment was commenced is set 1. During the test period of about 4 weeks, the maximum TGIR value was 76%, and thus an excellent antitumor effect was observed.

COL-1 (colon) = test: Antitumor effect against COL-1 colon tumor in nude mice; format: in vivo; settings: 100 mg/kg intraperitoneally once a day, 9 days
Procedure: as §1, with “1.” for “1. During the test period of about 4 weeks, the maximum TGIR value was 76%, and thus an excellent antitumor effect was observed.”
(§2) In the same manner as described in 2, various types of tumor cells (obtained from the Central Institute for Experimental Animals) were transplanted into nude mice. When the tumor had grown to a volume of about 100 mm^3, the animals were allocated to several groups each consisting of 4 animals so as to equalize the average tumor volume of each group. Test drugs were administered intraperitoneally to animals in experimental groups once a day for 9 consecutive days at 100 mg/kg, and the vehicle was administered to control animals.

St-4 (stomach) = test: Antitumor effect against St-4 stomach tumor in nude mice; format: in vivo; settings: 100 mg/kg intraperitoneally once a day, 9 days
Procedure: as §1, with “1.” for “1. During the test period of about 4 weeks, the maximum TGIR value was 76%, and thus an excellent antitumor effect was observed.”
as §2

L-27 (lung) = test: Antitumor effect against L-27 lung tumor in nude mice; format: in vivo; settings: 100 mg/kg intraperitoneally once a day, 9 days
Procedure: as §1, with “1.” for “1. During the test period of about 4 weeks, the maximum TGIR value was 76%, and thus an excellent antitumor effect was observed.”
as §2

[4] = system: collagen-induced arthritis in mice; test: Effect on collagen-induced arthritis in mice; format: in vivo, mouse (DBA/lJNCrj); settings: for Number of mice with arthritis/total mice: 16 days; for Incidence of collagen-induced arthritis: 16 days (vehicle 70)
human glioma (GLO7) = test: Antitumor effect of the compounds against human glioma (GLO7), nude mice xenograft; format: in vivo; settings: Mus musculus, po, 216 h, read-out: Tumor growth inhibition rate (TGIR)
Procedure: Analogously to 2, human glioma cells, GLO7 (obtained from the Central Institute for Experimental Animals), was transplanted into nude mice. When the tumor had grown to a volume of about 100 mm^3, the nude mice were divided into several groups of 4 animals so as to equalize the average tumor volumes of each group. The test drug was administered orally to animals in experimental groups once a day for 9 consecutive days at 50 mg/kg, and the vehicle was administered to control animals. The tumor growth inhibition rate (TGIR, %) was calculated from the equation: TGIR=(1-Tx/Cx)×100, in which Cx is the tumor volume in the control mice and Tx is the tumor volume in the drug-treated mice, on day X, when the initial tumor volume at the time treatment was commenced is set 1.

Row | SMILES | IC50 (PDGF receptor) [nM] | Glomerular sclerosis inhibition rate ([1]; 10 mg/kg oral 2 times a day, p < 0.05) [%] | Glomerular sclerosis inhibition rate ([1]; 30 mg/kg oral 2 times a day, p < 0.05) [%] | Glomerular sclerosis inhibition rate ([1]; 100 mg/kg oral 2 times a day, p < 0.01) [%] | prolonged survival: drug-treated animals survived longer than control animals by [2] [%] | maximum tumor growth inhibition rate (TGIR) [3] [%] | Tumor growth inhibition rate (TGIR) (COL-1 (colon)) [%] | Tumor growth inhibition rate (TGIR) (St-4 (stomach)) [%] | Tumor growth inhibition rate (TGIR) (L-27 (lung)) [%] | Number of mice with arthritis/total mice ([4]; 10 mg/kg intraperitoneally) | Incidence of collagen-induced arthritis ([4]; 10 mg/kg intraperitoneally) [%] | Number of mice with arthritis/total mice ([4]; 100 mg/kg intraperitoneally) | Incidence of collagen-induced arthritis ([4]; 100 mg/kg intraperitoneally) [%] | inhibition in vivo at 50 mg/kg (human glioma (GLO7)) [%]
1 | COc1cc2nccc(Oc3ccc(C(=O)c4ccc(C(C)(C)C)cc4)cc3)c2cc1OC [Compound 32, (4-t-Butylphenyl){4-[(6,7-dimethoxy-4-quinolyl)oxy]phenyl}methanone] | 300 | 11.7 | 10.2 | 13.7 |  |  |  |  |  |  |  |  |  | 
2 | COc1ccc(NC(=O)Nc2ccc(Oc3ccnc4cc(OC)c(OC)cc34)cc2)cc1 [Compound 43, N-(4-Methoxyphenyl)-N'-{4-[(6,7-dimethoxy-4-quinolinyl)oxy]phenyl}urea] | 5 |  |  |  | 130 | 76 | 68 | 78 | 83 | 1/9 | 11 | 0/10 | 0 | 
3 | COc1cccc(NC(=O)Nc2ccc(Oc3ccnc4cc(OC)c(OC)cc34)cc2)c1 [Compound 58] |  |  |  |  |  |  | 74 | 86 | 96 |  |  |  |  | 57
